# From patent US9617259B2, “Histone deacetylase inhibitors and compositions and methods of use thereof” (CHDI Foundation, Inc., priority 2013, dated 2017)
# Molecular target: human catalytic domain HDAC4 protein (amino acids 648-1032) (Homo sapiens (Human), UniProt P56524)
# Experiment: Inhibition of HDAC4 catalytic domain enzymatic activity, fluorogenic substrate Boc-Lys(Tfa)-AMC
# Conditions: read-out: Biochemical HDAC-4 IC50
# Description: Analysis of Inhibition of HDAC4 with Class IIa Histone Deacetylase (HDAC) Inhibitors
# The potency of Class IIa Histone Deacetylase (HDAC) inhibitors is quantified by measuring the Histone Deacetylase 4 (HDAC4) catalytic domain enzymatic activity using the fluorogenic substrate, Boc-Lys(Tfa)-AMC. The substrate is deacetylated to Boc-Lys-AMC by HDAC4. Cleavage by trypsin results in the release of the fluorophore AMC from the deacetylated substrate. The fluorescence of the sample is directly related to the histone deacetylase activity in the sample.
# Serial dilutions of the HDAC inhibitors and control reference compound (1-(5-(3-((4-(1,3,4-oxadiazol-2-yl)phenoxy)methyl)-1,2,4-oxadiazol-5-yl)thiophen-2-yl)-2,2,2-trifluoroethanone) are made by first resuspending the lyophilized compound to a final concentration of 10 mM in 100% dimethyl sulfoxide (DMSO). Stocks of 60 μl aliquots of the 10 mM compound in DMSO are prepared and stored at −20° C. From one stock aliquot of each compound to be tested and the reference compound, a 16-point serial dilution is prepared according to
# 2 μl (200×) of each diluted solution and each control (full activity: 100% DMSO alone or full inhibition 1 mM) is stamped into V-bottomed polypropylene 384-well compound plates using either the Bravo (384-well head from Agilent) or 12.5 μl 16-channel Matrix multi-channel pipette (Matrix Technologies Ltd).
# A working solution of enzyme is prepared from a 500 μg/ml stock aliquot of HDAC4 catalytic domain (thawed on ice) diluted to 0.2 μg/ml with assay buffer (50 mM Tris-HCl, 137 mM NaCl, 2.7 mM KCl, and 1 mM MgCl2 at pH 8 and equilibrated to room temperature) just prior to the addition of the enzyme to the assay.
# 5× (50 μM) substrate is prepared just prior to the addition to the assay. A 1 mM substrate stock is made by diluting a 100 mM Boc-Lys(Tfa)-AMC in DMSO solution 1:100 by adding it drop-wise to assay buffer (equilibrated to room temperature) while vortexing at slow speed to prevent precipitation. The 5× substrate is prepared by diluting the 1 mM substrate solution 1:20 by adding it drop-wise to assay buffer (equilibrated to room temperature) while vortexing at slow speed to prevent precipitation.
# 3× (30 μM) Developer/Stop Solution is prepared just prior to addition to the plate by diluting a stock solution of 10 mM reference compound 1:333 in 25 mg/ml trypsin (PAA Laboratories Ltd.) equilibrated to room temperature.
# 5 μl of each solution of 1:20 diluted compound from above is transferred to a clear bottomed, black, 384-well assay plate using the Bravo or the Janus (384-well MDT head from Perkin Elmer). Using a 16-channel Matrix multi-channel pipette, 35 μl of the working solution of HDAC4 catalytic domain enzyme (0.2 μg/ml in assay buffer) is transferred to the assay plate. The assay is then started by adding 10 μl of 5× (50 μM) substrate to the assay plates using either the Bravo, Janus or 16-channel Matrix multi-channel pipette. The assay plate is then shaken for two minutes on an orbital shaker at 900 rpm (rotations per minute). Next the plate is incubated for 15 minutes at 37° C. The reaction is stopped by adding 25 al of 3× (30 μM) developer/stop solution to the assay plates using either the Bravo, Janus or a 16-channel Matrix multi-channel pipette. Assay plates are then shaken for 5 minutes on an orbital shaker at 1200 rpm. Next, the assay plates are incubated at 37° C. for 1 hour in a tissue culture incubator. Finally, the fluorescence is measured (Excitation: 355 nm, Emission: 460 nm) using PerkinElmer EnVision in top read mode.
# Sequence of human catalytic domain HDAC4 protein (amino acids 648-1032) (P56524 648-1032): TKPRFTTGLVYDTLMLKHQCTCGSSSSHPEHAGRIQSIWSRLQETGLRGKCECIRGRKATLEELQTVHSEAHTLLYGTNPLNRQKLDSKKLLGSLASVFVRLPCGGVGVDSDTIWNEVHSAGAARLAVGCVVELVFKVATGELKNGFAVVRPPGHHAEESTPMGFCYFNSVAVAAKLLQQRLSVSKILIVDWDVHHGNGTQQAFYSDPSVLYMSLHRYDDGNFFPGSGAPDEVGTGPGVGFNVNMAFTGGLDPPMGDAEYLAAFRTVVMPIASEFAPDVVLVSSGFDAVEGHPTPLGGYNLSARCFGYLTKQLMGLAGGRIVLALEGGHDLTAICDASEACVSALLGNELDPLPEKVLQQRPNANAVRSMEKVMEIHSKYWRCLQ
row,Compound,IC50
1,"O=C(NO)C1(c2ccccc2)CC=C(c2cncc(F)c2)CC1 (stereo not drawn) [Example 43, 4-(5-fluoropyridin-3-yl)-N-hydroxy-1,2,3,6-tetrahydro-[1,1′-biphenyl]-1-carboxamide]",3600 nM
2,"Cc1c(F)cccc1C1(C(=O)NO)CC=C(c2ccc3nccnc3c2)CC1 (stereo not drawn) [Example 45, 3′-fluoro-N-hydroxy-2′-methyl-4-(quinoxalin-6-yl)-1,2,3,6-tetrahydro-[1,1′-biphenyl]-1-carboxamide]",550 nM
3,"Cc1ncc(C2=C[C@@](C(=O)NO)(c3cccc(F)c3C)CC2)cn1 [Example 9, (R)-1-(3-fluoro-2-methylphenyl)-N-hydroxy-3-(2-methylpyrimidin-5-yl)cyclopent-2-enecarboxamide]",26800 nM
4,"Cc1ccccc1C1=C[C@@](C(=O)NO)(c2cccc(F)c2C)CC1 [Example 3, (R)-1-(3-fluoro-2-methyl-phenyl)-N-hydroxy-3-(o-tolyl)cyclopent-2-ene-1-carboxamide]",230 nM
5,"O=C(NO)[C@]1(c2ccccc2)C=C(c2ccccc2)CC1 [Example 33, (S)—N-hydroxy-1,3-diphenylcyclopent-2-enecarboxamide]",190 nM
6,"O=C(NO)C1(c2ccccc2F)CC=CC1 [Example 31, 1-(2-fluorophenyl)-N-hydroxy-cyclopent-3-enecarboxamide]",8300 nM

# Now from value to compound:
row,IC50,Compound
1,40 nM,"Cc1c(F)cccc1[C@@]1(C(=O)NO)C=C(c2ccnc(C(F)(F)F)c2)CC1 [Example 13, (S)-1-(3-fluoro-2-methylphenyl)-N-hydroxy-3-(2-(trifluoromethyl)pyridin-4-yl)cyclopent-2-enecarboxamide]"
2,20 nM,"Cc1c(F)cccc1[C@@]1(C(=O)NO)C=C(c2cncc(Cl)c2)CC1 [Example 11, (S)-3-(5-chloropyridin-3-yl)-1-(3-fluoro-2-methylphenyl)-N-hydroxycyclopent-2-enecarboxamide]"
3,10 nM,"Cc1ccc(C2=C[C@](C(=O)NO)(c3cccc(F)c3C)CC2)cn1 [Example 25, (S)-1-(3-fluoro-2-methylphenyl)-N-hydroxy-3-(6-methylpyridin-3-yl)cyclopent-2-enecarboxamide]"
4,10 nM,"Cc1c(F)cccc1[C@@]1(C(=O)NO)C=C(c2ccc3scnc3c2)CC1 [Example 40, (S)-3-(benzo[d]thiazol-5-yl)-1-(3-fluoro-2-methylphenyl)-N-hydroxycyclopent-2-enecarboxamide]"
5,20 nM,"Cc1ccccc1C1=C[C@](C(=O)NO)(c2cccc(F)c2C)CC1 [Example 4, (S)-1-(3-fluoro-2-methyl-phenyl)-N-hydroxy-3-(o-tolyl)cyclopent-2-ene-1-carboxamide]"
6,10 nM,"Cc1ncc(C2=C[C@](C(=O)NO)(c3cccc(F)c3C)CC2)cc1Cl [Example 26, (S)-3-(5-chloro-6-methylpyridin-3-yl)-1-(3-fluoro-2-methylphenyl)-N-hydroxycyclopent-2-enecarboxamide]"
7,7600 nM,"Cc1c(F)cccc1[C@]1(C(=O)NO)C=C(c2ccccc2)CC1 [Example 1, (R)-1-(3-fluoro-2-methylphenyl)-N-hydroxy-3-phenylcyclopent-2-enecarboxamide]"

# System: Jurkat E6-1 cells
# Experiment: Inhibition of cellular HDAC activity in Jurkat E6-1 cells, fluorogenic substrate Boc-Lys(Tfa)-AMC
# Type: cell-based
# Conditions: read-out: Cell IC50
# Description: Analysis of Inhibition of Cellular HDAC Activity with Class IIa Histone Deacetylase (HDAC) Inhibitors
# The potency of Class IIa Histone Deacetylase (HDAC) inhibitors is quantified by measuring the cellular histone deacetylase enzymatic activity using the fluorogenic substrate, Boc-Lys(Tfa)-AMC. After penetration in Jurkat E6-1 cells, the substrate is deacetylated to Boc-Lys-AMC. After cell lysis and cleavage by trypsin, the fluorophore AMC is released from the deacetylated substrate only. The fluorescence of the sample is directly related to the histone deacetylase activity in the sample.
# Jurkat E6.1 cells are cultured according to standard cell culture protocols in Jurkat E6.1 Growth Media (RPMI without phenol red, 10% FBS, 10 mM HEPES, and 1 mM Sodium Pyruvate). Jurkat E6.1 cells are counted using a Coulter Counter and resuspended in Jurkat E6.1 growth media at a concentration of 75,000 cells/35 μl. 35 μl or 75,000 cells is seeded into Greiner microtitre assay plates. The plates are then incubated at 37° C. and 5% CO2 while other assay components are being prepared. […]
# 5 μl of each solution of 1:20 diluted compound from above is transferred to the Greiner microtitre assay plates with 75,000 cells/well using the Bravo. […] Finally the top read fluorescence (Excitation: 355 nm, Emission: 460 nm) is measured using PerkinElmer EnVision.
row,IC50,Compound
1,> 50000 nM,"Cc1ncc(C2=C[C@@](C(=O)NO)(c3cccc(F)c3C)CC2)cn1 [Example 9, (R)-1-(3-fluoro-2-methylphenyl)-N-hydroxy-3-(2-methylpyrimidin-5-yl)cyclopent-2-enecarboxamide]"
2,380 nM,"Cc1ncc(C2=C[C@](C(=O)NO)(c3cccc(F)c3C)CC2)cn1 [Example 10, (S)-1-(3-fluoro-2-methylphenyl)-N-hydroxy-3-(2-methylpyrimidin-5-yl)cyclopent-2-enecarboxamide]"
